Measurements as given in patent US20250129021A1, “SMALL MOLECULE PROTEIN SYNTHESIS MODULATORS” (Interdict Bio, Inc., priority 2023, published 2025).
Where a name gives a salt, the structure may show the parent alone.

Columns and labels:
Type in all cases: biochemical
Conditions in all cases: HeLa S3 lysate, sfGFP/mCherry ratio, 2 hrs at 30° C.
MYC = experiment: In vitro transcription-translation (IVTT) assay, MYC reporter
In short: (§1)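 Reporter: mCherry, P2A, then 3×FLAG-target peptide-sfGFP fusion, IRES-initiated; HeLa S3 lysate IVTT; cpd dilutions 30 μM−0.1 μM half-log in 100% DMSO (dilution-plate conc); DNA added last; 2 h, 30° C; PBS quench.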

ALK = experiment: In vitro transcription-translation (IVTT) assay, ALK reporter
From the text: (§2) All reporter constructs have been cloned into the pT7CFE1-CHis plasmid (ThermoFisher #88860) using Gibson assembly procedures (NEB #E2611L). The parental pT7CFE1-CHis plasmid contains an EMCV IRES at the 5′UTR for translation initiation, a multiple-cloning site (MCS) for gene insertion, an optional C-terminal His-epitope tag, and polyA sequence in the 3′UTR to regulate mRNA stability. All reporters are designed to be inserted at the MCS to include a red fluorescent protein (mCherry), P2A self-cleaving peptide which releases the preceding mCherry protein product, and a fusion open reading frame containing a 3×FLAG epitope, a peptide sequence of interest (TEST), and green fluorescent protein (sfGFP).
(§3) Construct Plasmid Preparation: All plasmids are isolated from MACH1 cells (ThermoFisher) grown overnight in ampicillin-containing luria broth, and purified using ZymoPure Express Plasmid Midiprep Kit (Zymo Research). Constructs are sequenced verified and diluted to a working concentration of 110 ng/μL.
(§4) HeLa S3 Lysate Preparation: HeLa S3 cell pellets are acquired from Ipracell/Ipratech (Belgium) and shipped as 4 mL frozen cell pellets on dry ice for storage at −80° C. until use. The procedure for lysate preparation is as follows. Prepare 1× Lysis Buffer, cold and stored on ice:
(§5) Each preparation takes 8 cell pellets (4 ml packed volume each, approximately 1.0×10^9 cells per pellet). Thaw cell pellets from −80° C. on ice for 90 mins. Lay pellets horizontally on top of the ice and rotate every 30 mins to ensure even thawing. Once thawed, add 4 mL of cold lysis buffer to each pellet, and using a serological pipet, gently pipet up and down to break up clumps. Incubate resuspended cells in ice for an additional 30 mins (plunged into ice). During 30 min incubation, rinse and RNase-zap (Ambion) glass dounces (use loose pestle “A”), gently dry and place on ice until needed. Prepare RNase-free Eppendorf tubes for spinning and for batch storage. Add batch labels to 1.5-1.7 mL RNase-free microcentrifuge tubes (labeling scheme below). Each batch will have an extra 1.5-1.7 mL RNase-free microcentrifuge tube for 40 μL of lysate, label the top of this tube (labeling scheme below). After 30 min incubation, transfer all 8 mL of cell pellet to dounce. Cell lysis is complete after douncing 100 times. Aliquot cell lysis into 1.5-1.7 mL temporary-microcentrifuge tubes. Place tubes in centrifuge with “fins” out, and spin at 1,200×g for 5 mins. After the first spin use a 1 mL pipet to resuspend each tube and repeat spin. This acts as an additional lysis step, is more vigorous and increases lysate yield. During second spin get liquid N2 and a fresh conical tube on ice. After spin is complete, transfer supernatant (lysate) from microcentrifuge tubes into the 50 mL conical tube and keep on ice. Repeat steps 10-14 for all other cell pellets until completed. Once all cell lysate has been transferred to the 50 mL conical tube pipet to mix so the solution is homogenous. Transfer 1 mL of lysate into batch-labeled microcentrifuge tubes and flash freeze in liquid nitrogen. Be sure to pipet up and down to mix throughout transfer step. Place all tubes in the […] for long-term storage.
(§6) In vitro transcription-translation assay setup: Each assay includes a master mix containing lysate and shared components, a 96-well plate containing compound titrations for testing, a 96-well DNA plate with reporter constructs to be tested, 96-well skirted PCR plates, and 96-well flat-bottom, black, fluorescent assay plates. […]

CCND1 = experiment: In vitro transcription-translation (IVTT) assay, CCND1 reporter
In short: as §1

KRAS G12D = experiment: In vitro transcription-translation (IVTT) assay, KRAS G12D reporter
From the text: as §2, §3, §4, §5, §6

MCL-1 = experiment: In vitro transcription-translation (IVTT) assay, MCL-1 reporter
In short: as §1

| Compound | IC50 (MYC) | IC50 (ALK) | IC50 (CCND1) | IC50 (KRAS G12D) | IC50 (MCL-1) |
| --- | --- | --- | --- | --- | --- |
| COc1ccc(C[C@H]2NC[C@H](O)[C@H]2OC(=O)Nc2nc3ccccc3s2)cc1 [V187753, (2R,3S,4S)-4-hydroxy-2-[(4-methoxyphenyl)methyl]pyrrolidin-3-yl N-(1,3-benzothiazol-2-yl)carbamate; trifluoroacetic acid] | > 30 µM | > 30 µM |  |  |  |
| COc1ccc(C[C@H]2NC[C@H](O)[C@H]2OC(=O)NCCN)cc1 [V187575, (2R,3S,4S)-4-hydroxy-2-[(4-methoxyphenyl)methyl]pyrrolidin-3-yl N-(2-aminoethyl)carbamate; trifluoroacetic acid] | 20 to 30 µM | < 10 µM |  |  |  |
| COc1ccc(C[C@H]2NC[C@H](O)[C@H]2OC(=O)Nc2nc3ccccc3[nH]2)cc1 [V187754, (2R,3S,4S)-4-hydroxy-2-[(4-methoxyphenyl)methyl]pyrrolidin-3-yl N-(1H-1,3-benzodiazol-2-yl)carbamate] |  | < 10 µM |  |  |  |
| CCN(CC)CCNC(=O)O[C@@H]1[C@@H](O)CN[C@@H]1Cc1ccc(OC)cc1 [V187384, (2R,3S,4S)-4-hydroxy-2-[(4-methoxyphenyl)methyl]pyrrolidin-3-yl N-[2-(diethylamino)ethyl]carbamate] | > 30 µM | 10 to 20 µM |  |  |  |
| COc1ccc(C[C@H]2NC[C@H](O)[C@H]2OC(=O)NCCN2CC(O)(C#N)C2)cc1 [V187567, (2R,3S,4S)-4-hydroxy-2-[(4-methoxyphenyl)methyl]pyrrolidin-3-yl N-[2-(3-cyano-3-hydroxyazetidin-1-yl)ethyl]carbamate] | 10 to 20 µM |  | 20 to 30 µM | 20 to 30 µM |  |
| COc1ccc(C[C@H]2NC[C@H](O)[C@H]2OC(=O)NCCN2CCC3(CCC3)C2)cc1 [V187641, (2R,3S,4S)-4-hydroxy-2-[(4-methoxyphenyl)methyl]pyrrolidin-3-yl N-(2-{6-azaspiro[3.4]octan-6-yl}ethyl)carbamate] |  | 10 to 20 µM |  |  |  |
| COc1ccc(C[C@H]2NC[C@H](O)[C@H]2OC(=O)NCCN2CC[C@H](O)C2)cc1 [V187576, (2R,3S,4S)-4-hydroxy-2-[(4-methoxyphenyl)methyl]pyrrolidin-3-yl N-{2-[(3S)-3-hydroxypyrrolidin-1-yl]ethyl}carbamate trifluoroacetic acid salt] | < 10 µM | 10 to 20 µM |  |  |  |
| COc1ccc(C[C@H]2NC[C@H](O)[C@H]2OC(=O)NCc2nn[nH]n2)cc1 [V187534, (2R,3S,4S)-4-hydroxy-2-[(4-methoxyphenyl)methyl]pyrrolidin-3-yl N-(2H-1,2,3,4-tetrazol-5-ylmethyl) carbamate; trifluoroacetic acid] | 10 to 20 µM | < 10 µM |  |  |  |
| COc1ccc(C[C@H]2NC[C@H](O)[C@H]2OC(=O)NCc2cn(-c3cc4ccc(O)cc4oc3=O)nn2)cc1 [V187692, (2R,3S,4S)-4-hydroxy-2-[(4-methoxyphenyl)methyl]pyrrolidin-3-yl N-{[1-(7-hydroxy-2-oxochromen-3-yl)-1,2,3-triazol-4-yl]methyl}carbamate; trifluoroacetic acid] | > 30 µM | > 30 µM |  |  |  |
| COc1ccc(C[C@H]2NC[C@H](O)[C@H]2OC(=O)NCCOCCN2CCNCC2)cc1 [V187626, (2R,3S,4S)-4-hydroxy-2-[(4-methoxyphenyl)methyl]pyrrolidin-3-yl N-{2-[2-(piperazin-1-yl)ethoxy]ethyl}carbamate; trifluoroacetic acid] | > 30 µM | 20 to 30 µM |  |  |  |
| COc1ccc(C[C@H]2NC[C@H](O)[C@H]2OC(=O)NCCCO)cc1 [V187585, (2R,3S,4S)-4-hydroxy-2-[(4-methoxyphenyl)methyl]pyrrolidin-3-yl N-(3-hydroxypropyl)carbamate] | < 10 µM | < 10 µM | < 10 µM |  | < 10 µM |
| COc1ccc(C[C@H]2NC[C@H](O)[C@H]2OC(=O)NCCN2CC(C)(O)C2)cc1 [V187580, (2R,3S,4S)-4-hydroxy-2-[(4-methoxyphenyl)methyl]pyrrolidin-3-yl N-[2-(3-hydroxy-3-methylazetidin-1-yl)ethyl]carbamate; trifluoroacetic acid] | > 30 µM | 10 to 20 µM |  |  |  |
| COc1ccc(C[C@H]2NC[C@H](O)[C@H]2OC(=O)NCCNCCOC(C)C)cc1 [V187640, (2R,3S,4S)-4-hydroxy-2-[(4-methoxyphenyl)methyl]pyrrolidin-3-yl N-{2-[(2-isopropoxyethyl)amino]ethyl}carbamate; trifluoroacetic acid] | > 30 µM |  |  | > 30 µM |  |
| COc1ccc(C[C@H]2NC[C@H](O)[C@H]2OC(=O)Nc2ncc[nH]2)cc1 [V187755, (2R,3S,4S)-4-hydroxy-2-[(4-methoxyphenyl)methyl]pyrrolidin-3-yl N-(1H-imidazol-2-yl)carbamate] | < 10 µM | < 10 µM | < 10 µM |  |  |
| COc1ccc(C[C@H]2NC[C@H](O)[C@H]2OC(=O)NCCN2CC(O)(CN)C2)cc1 [V187581, (2R,3S,4S)-4-hydroxy-2-[(4-methoxyphenyl)methyl]pyrrolidin-3-yl N-{2-[3-(aminomethyl)-3-hydroxyazetidin-1-yl]ethyl}carbamate; trifluoroacetic acid] | 20 to 30 µM |  |  | > 30 µM |  |
| COc1ccc(C[C@H]2NC[C@H](O)[C@H]2OC(=O)Nc2nccs2)cc1 [V187752, (2R,3S,4S)-4-hydroxy-2-[(4-methoxyphenyl)methyl]pyrrolidin-3-yl N-(1,3-thiazol-2-yl)carbamate Hydrochloride] | 10 to 20 µM | < 10 µM |  |  |  |
| COc1ccc(C[C@H]2NC[C@H](O)[C@H]2OC(=O)NCCN2C[C@@H](NC(C)=O)[C@H](NC(C)=O)C2)cc1 [V187588, (2R,3S,4S)-4-hydroxy-2-[(4-methoxyphenyl)methyl]pyrrolidin-3-yl N-{2-[(3R,4R)-3,4-diacetamidopyrrolidin-1-yl]ethyl}carbamate; trifluoroacetic acid] | > 30 µM | > 30 µM |  |  |  |
| COc1ccc(C[C@H]2NC[C@H](O)[C@H]2OC(=O)NCCN2CC(O)C2)cc1 [V187579, (2R,3S,4S)-4-hydroxy-2-[(4-methoxyphenyl)methyl]pyrrolidin-3-yl N-[2-(3-hydroxyazetidin-1-yl)ethyl]carbamate; trifluoroacetic acid] | 10 to 20 µM | 20 to 30 µM |  |  |  |
| COc1ccc(C[C@H]2NC[C@H](O)[C@H]2OC(=O)Nc2nnc(CN(Cc3ccccc3)Cc3ccccc3)s2)cc1 [V187551, (2R,3S,4S)-4-hydroxy-2-[(4-methoxyphenyl)methyl]pyrrolidin-3-yl N-{5-[(dibenzylamino)methyl]-1,3,4-thiadiazol-2-yl}carbamate] | > 30 µM |  |  | > 30 µM |  |
| COc1ccc(C[C@H]2NC[C@H](O)[C@H]2OC(=O)NCCNCCn2ccnc2)cc1 [V187637, (2R,3S,4S)-4-hydroxy-2-[(4-methoxyphenyl)methyl]pyrrolidin-3-yl N-(2-{[2-(imidazol-1-yl)ethyl]amino}ethyl)carbamate] | 10 to 20 µM |  |  | 20 to 30 µM |  |
| COc1ccc(C[C@H]2NC[C@H](O)[C@H]2OC(=O)NCCNc2c(NCc3ccccc3)c(=O)c2=O)cc1 [V187519, (2R,3S,4S)-4-hydroxy-2-[(4-methoxyphenyl)methyl]pyrrolidin-3-yl N-(2-{[2-(benzylamino)-3,4-dioxocyclobut-1-en-1-yl]amino}ethyl)carbamate; trifluoroacetic acid] |  |  |  | > 30 µM |  |
| CNC(=O)O[C@@H]1[C@@H](O)CN[C@@H]1Cc1ccc(OC)cc1 [V187583, (2R,3S,4S)-4-hydroxy-2-[(4-methoxyphenyl)methyl]pyrrolidin-3-yl N-methylcarbamate; trifluoroacetic acid] |  | < 10 µM |  |  |  |
